# ChEMBL document CHEMBL1926681, “Novel inhibitors of epidermal growth factor receptor: (4-(Arylamino)-7H-pyrrolo[2,3-d]pyrimidin-6-yl)(1H-indol-2-yl)methanones and (1H-indol-2-yl)(4-(phenylamino)thieno[2,3-d]pyrimidin-6-yl)methanones” (Bioorg Med Chem, 2012)
# Activity calls are given as the source filed them. The rule behind the calls is not given here.
# What was measured:
# [1] = Cytotoxicity against human PXF 698L cells after 4 days by propidium iodide staining-based fluorometric analysis; type: functional, cell-based; settings: 96 h
# [2] = Cytotoxicity against human RXF 393NL cells after 4 days by propidium iodide staining-based fluorometric analysis; type: functional, cell-based; settings: 96 h
# [3] = biological target: Hepatocyte growth factor receptor (Homo sapiens) (UniProt P08581); test: Inhibition of MET using poly(Ala, Glu, Lys, Tyr) as substrate and [gamma33P]ATP at 1 uM after 60 mins by scintillation counting
# [4] = Cytotoxicity against human OVXF 899L cells after 4 days by propidium iodide staining-based fluorometric analysis; type: functional, cell-based; settings: 96 h
# CWR22R = test: Cytotoxicity against human 22Rv1 cells after 4 days by propidium iodide staining-based fluorometric analysis; type: functional, cell-based; settings: 22Rv1, 96 h
# [5] = Cytotoxicity against human PAXF 546L cells after 4 days by propidium iodide staining-based fluorometric analysis; type: functional, cell-based; settings: 96 h
# [6] = Cytotoxicity against human DIFI cells after 4 days by propidium iodide staining-based fluorometric analysis; type: functional, cell-based; settings: 96 h
# MCF7 = test: Cytotoxicity against human MCF7 cells after 4 days by propidium iodide staining-based fluorometric analysis; type: functional, cell-based; settings: MCF7, 96 h
# DU-145 = test: Cytotoxicity against human DU145 cells after 4 days by propidium iodide staining-based fluorometric analysis; type: functional, cell-based; settings: DU-145, 96 h
# [7] = Cytotoxicity against human MEXF 1341L cells after 4 days by propidium iodide staining-based fluorometric analysis; type: functional, cell-based; settings: 96 h
# [8] = Cytotoxicity against human RXF 486L cells after 4 days by propidium iodide staining-based fluorometric analysis; type: functional, cell-based; settings: 96 h
# [9] = Cytotoxicity against human BXF T24 cells after 4 days by propidium iodide staining-based fluorometric analysis; type: functional, cell-based; settings: T-24, 96 h
# [10] = Cytotoxicity against human CXF 269L cells after 4 days by propidium iodide staining-based fluorometric analysis; type: functional, cell-based; settings: 96 h
# [11] = biological target: T1, Epidermal growth factor receptor (Homo sapiens, UniProt P00533); test: Inhibition of EGFR using poly(Glu,Tyr)4:1 as substrate and [gamma33P]ATP after 60 mins by scintillation counting
# [12] = Cytotoxicity against human LXFA 526L cells after 4 days by propidium iodide staining-based fluorometric analysis; type: functional, cell-based; settings: 96 h
# [13] = Cytotoxicity against human PAXF 1657L cells after 4 days by propidium iodide staining-based fluorometric analysis; type: functional, cell-based; settings: 96 h
# [14] = Cytotoxicity against human LXFA 289L cells after 4 days by propidium iodide staining-based fluorometric analysis; type: functional, cell-based; settings: 96 h
# OVCAR-3 = test: Cytotoxicity against human OVCAR3 cells after 4 days by propidium iodide staining-based fluorometric analysis; type: functional, cell-based; settings: OVCAR-3, 96 h
# [15] = Cytotoxicity against human MAXF 401NL cells after 4 days by propidium iodide staining-based fluorometric analysis; type: functional, cell-based; settings: 96 h
# [16] = Cytotoxicity against human RXF 1781L cells after 4 days by propidium iodide staining-based fluorometric analysis; type: functional, cell-based; settings: 96 h
# HCT-116 = test: Cytotoxicity against human HCT116 cells after 4 days by propidium iodide staining-based fluorometric analysis; type: functional, cell-based; settings: HCT-116, 96 h
# [17] = Cytotoxicity against human GXF251L cells after 4 days by propidium iodide staining-based fluorometric analysis; type: functional, cell-based; settings: GXF 251L, 96 h
# [18] = Cytotoxicity against human PC3M cells after 4 days by propidium iodide staining-based fluorometric analysis; type: functional, cell-based; settings: PC-3M, 96 h
# RKO = test: Cytotoxicity against human RKO cells after 4 days by propidium iodide staining-based fluorometric analysis; type: functional, cell-based; settings: 96 h
# LNCaP = test: Cytotoxicity against human LNCAP cells after 4 days by propidium iodide staining-based fluorometric analysis; type: functional, cell-based; settings: 96 h
# [19] = Cytotoxicity against human UXF 1138L cells after 4 days by propidium iodide staining-based fluorometric analysis; type: functional, cell-based; settings: 96 h
# [20] = Cytotoxicity against human LXFL 1121L cells after 4 days by propidium iodide staining-based fluorometric analysis; type: functional, cell-based; settings: 96 h
# [21] = Cytotoxicity against human LXFA 629L cells after 4 days by propidium iodide staining-based fluorometric analysis; type: functional, cell-based; settings: 96 h
# SAOS-2 = test: Cytotoxicity against human Saos2 cells after 4 days by propidium iodide staining-based fluorometric analysis; type: functional, cell-based; settings: SAOS-2, 96 h, read-out: IC50
# [22] = biological target: Vascular endothelial growth factor receptor 2 (Homo sapiens) (UniProt P35968); test: Inhibition of VEGFR2 using poly(Glu,Tyr)4:1 as substrate and [gamma33P]ATP at 1 uM after 60 mins by scintillation counting
# NCI-H460 = test: Cytotoxicity against human H460 cells after 4 days by propidium iodide staining-based fluorometric analysis; type: functional, cell-based; settings: NCI-H460, 96 h
# [23] = Cytotoxicity against human BXF 1352L cells after 4 days by propidium iodide staining-based fluorometric analysis; type: functional, cell-based; settings: 96 h
# [24] = Cytotoxicity against human BXF 1218L cells after 4 days by propidium iodide staining-based fluorometric analysis; type: functional, cell-based; settings: 96 h
# [25] = Cytotoxicity against human LXFL 529L cells after 4 days by propidium iodide staining-based fluorometric analysis; type: functional, cell-based; settings: 96 h
# [26] = Cytotoxicity against human PXF 1752L cells after 4 days by propidium iodide staining-based fluorometric analysis; type: functional, cell-based; settings: 96 h
# [27] = Cytotoxicity against human MDA231 cells after 4 days by propidium iodide staining-based fluorometric analysis; type: functional, cell-based; settings: MDA-MB-231, 96 h
# [28] = biological target: Tyrosine-protein kinase ABL1 (Homo sapiens) (UniProt P00519); test: Inhibition of ABL1 using poly(Ala, Glu, Lys, Tyr) as substrate and [gamma33P]ATP at 1 uM after 60 mins by scintillation counting
# CAL-27 = test: Cytotoxicity against human CAL27 cells after 4 days by propidium iodide staining-based fluorometric analysis; type: functional, cell-based; settings: CAL-27, 96 h
# TE-671 = test: Cytotoxicity against human TE671 cells after 4 days by propidium iodide staining-based fluorometric analysis; type: functional, cell-based; settings: TE-671, 96 h
# MKN-45 = test: Cytotoxicity against human MKN45 cells after 4 days by propidium iodide staining-based fluorometric analysis; type: functional, cell-based; settings: MKN-45, 96 h
# HT-29 = test: Cytotoxicity against human HT-29 cells after 4 days by propidium iodide staining-based fluorometric analysis; type: functional, cell-based; settings: HT-29, 96 h
# [29] = Cytotoxicity against human MEXF 462NL cells after 4 days by propidium iodide staining-based fluorometric analysis; type: functional, cell-based; settings: 96 h
# [30] = Cytotoxicity against human LIXF 575L cells after 4 days by propidium iodide staining-based fluorometric analysis; type: functional, cell-based; settings: 96 h
# [31] = biological target: T1, Epidermal growth factor receptor; test: Inhibition of EGFR using poly(Glu,Tyr)4:1 as substrate and [gamma33P]ATP at 1 uM after 60 mins by scintillation counting
# [32] = biological target: T1, Epidermal growth factor receptor; test: Inhibition of EGFR autophosphorylation in EGF-stimulated human A431 cells after 1 hr by immunoblotting; type: cell-based, A-431
# [33] = Cytotoxicity against human PXF 1118L cells after 4 days by propidium iodide staining-based fluorometric analysis; type: functional, cell-based; settings: 96 h
# [34] = biological target: Receptor tyrosine-protein kinase erbB-2 (Homo sapiens) (UniProt P04626); test: Inhibition of Erbb2 using poly(Glu,Tyr)4:1 as substrate and [gamma33P]ATP at 1 uM after 60 mins by scintillation counting
# PANC-1 = test: Cytotoxicity against human PANC1 cells after 4 days by propidium iodide staining-based fluorometric analysis; type: functional, cell-based; settings: PANC-1, 96 h
# [35] = Cytotoxicity against human MEXF 276L cells after 4 days by propidium iodide staining-based fluorometric analysis; type: functional, cell-based; settings: MEXF276L, 96 h
# T1 sequence (P00533 whole entry): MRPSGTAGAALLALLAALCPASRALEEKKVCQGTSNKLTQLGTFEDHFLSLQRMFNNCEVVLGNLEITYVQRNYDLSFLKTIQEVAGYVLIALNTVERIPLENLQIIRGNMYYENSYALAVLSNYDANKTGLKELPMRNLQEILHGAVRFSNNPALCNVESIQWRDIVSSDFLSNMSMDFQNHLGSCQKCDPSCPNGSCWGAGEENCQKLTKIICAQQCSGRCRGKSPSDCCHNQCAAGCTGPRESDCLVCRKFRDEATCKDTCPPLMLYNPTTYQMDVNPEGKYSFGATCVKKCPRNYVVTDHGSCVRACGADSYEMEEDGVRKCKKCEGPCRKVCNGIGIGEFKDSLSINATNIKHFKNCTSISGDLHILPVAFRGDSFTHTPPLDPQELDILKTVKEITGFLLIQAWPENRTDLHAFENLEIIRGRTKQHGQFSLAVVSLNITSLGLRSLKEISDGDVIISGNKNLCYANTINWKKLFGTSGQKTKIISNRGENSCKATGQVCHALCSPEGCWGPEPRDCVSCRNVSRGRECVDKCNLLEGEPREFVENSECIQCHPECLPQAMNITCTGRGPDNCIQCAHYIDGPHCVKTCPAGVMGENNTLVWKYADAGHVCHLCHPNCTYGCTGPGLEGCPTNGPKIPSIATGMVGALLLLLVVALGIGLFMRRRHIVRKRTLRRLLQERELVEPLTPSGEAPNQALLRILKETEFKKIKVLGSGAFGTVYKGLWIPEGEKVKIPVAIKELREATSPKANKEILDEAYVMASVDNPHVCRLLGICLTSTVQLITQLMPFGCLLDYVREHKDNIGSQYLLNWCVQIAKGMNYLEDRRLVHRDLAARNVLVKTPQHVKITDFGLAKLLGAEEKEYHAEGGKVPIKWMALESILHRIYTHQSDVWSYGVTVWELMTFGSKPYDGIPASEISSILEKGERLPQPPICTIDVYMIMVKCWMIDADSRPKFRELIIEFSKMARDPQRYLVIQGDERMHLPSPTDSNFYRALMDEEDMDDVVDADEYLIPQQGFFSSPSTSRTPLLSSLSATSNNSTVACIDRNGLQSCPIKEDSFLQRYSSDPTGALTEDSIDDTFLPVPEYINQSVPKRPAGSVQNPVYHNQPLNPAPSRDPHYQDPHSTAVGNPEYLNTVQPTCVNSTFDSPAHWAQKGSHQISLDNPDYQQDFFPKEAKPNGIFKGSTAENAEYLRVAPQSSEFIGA
# Chain of Vascular endothelial growth factor receptor 2 (Homo sapiens) (P35968 whole entry): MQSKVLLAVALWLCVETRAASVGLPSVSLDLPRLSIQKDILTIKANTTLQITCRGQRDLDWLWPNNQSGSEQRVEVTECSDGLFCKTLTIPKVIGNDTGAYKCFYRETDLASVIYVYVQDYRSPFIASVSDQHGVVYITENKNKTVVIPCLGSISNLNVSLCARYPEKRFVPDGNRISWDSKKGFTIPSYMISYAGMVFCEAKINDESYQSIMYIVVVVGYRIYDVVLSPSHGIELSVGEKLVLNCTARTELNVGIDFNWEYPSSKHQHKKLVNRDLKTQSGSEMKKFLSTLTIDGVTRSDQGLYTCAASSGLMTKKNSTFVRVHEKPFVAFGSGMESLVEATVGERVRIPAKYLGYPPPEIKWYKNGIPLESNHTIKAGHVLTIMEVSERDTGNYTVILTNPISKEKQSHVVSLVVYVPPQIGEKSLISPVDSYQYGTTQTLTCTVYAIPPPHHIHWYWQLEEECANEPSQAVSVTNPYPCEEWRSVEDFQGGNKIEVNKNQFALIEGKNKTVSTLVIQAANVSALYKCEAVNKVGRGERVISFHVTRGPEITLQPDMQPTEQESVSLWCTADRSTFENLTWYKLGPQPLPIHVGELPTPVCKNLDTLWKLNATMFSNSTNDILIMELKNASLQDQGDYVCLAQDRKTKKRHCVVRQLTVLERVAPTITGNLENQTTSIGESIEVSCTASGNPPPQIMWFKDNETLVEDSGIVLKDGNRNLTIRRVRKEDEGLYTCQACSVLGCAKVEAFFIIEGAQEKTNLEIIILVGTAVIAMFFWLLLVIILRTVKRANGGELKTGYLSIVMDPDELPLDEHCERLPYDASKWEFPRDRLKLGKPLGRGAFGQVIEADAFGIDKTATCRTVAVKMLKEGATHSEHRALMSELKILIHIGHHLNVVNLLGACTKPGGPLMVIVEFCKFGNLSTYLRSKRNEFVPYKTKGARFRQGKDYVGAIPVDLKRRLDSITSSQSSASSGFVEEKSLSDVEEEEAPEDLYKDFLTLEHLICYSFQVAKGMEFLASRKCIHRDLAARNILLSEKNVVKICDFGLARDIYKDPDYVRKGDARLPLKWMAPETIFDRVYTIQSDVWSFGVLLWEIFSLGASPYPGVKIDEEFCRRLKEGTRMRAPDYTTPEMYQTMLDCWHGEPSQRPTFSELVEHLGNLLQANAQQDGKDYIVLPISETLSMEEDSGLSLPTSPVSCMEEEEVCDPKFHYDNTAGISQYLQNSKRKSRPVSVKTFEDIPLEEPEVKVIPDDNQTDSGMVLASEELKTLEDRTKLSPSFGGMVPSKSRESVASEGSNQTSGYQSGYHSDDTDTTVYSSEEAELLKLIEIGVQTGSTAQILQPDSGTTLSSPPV
# Chain of Hepatocyte growth factor receptor (Homo sapiens) (P08581 whole entry): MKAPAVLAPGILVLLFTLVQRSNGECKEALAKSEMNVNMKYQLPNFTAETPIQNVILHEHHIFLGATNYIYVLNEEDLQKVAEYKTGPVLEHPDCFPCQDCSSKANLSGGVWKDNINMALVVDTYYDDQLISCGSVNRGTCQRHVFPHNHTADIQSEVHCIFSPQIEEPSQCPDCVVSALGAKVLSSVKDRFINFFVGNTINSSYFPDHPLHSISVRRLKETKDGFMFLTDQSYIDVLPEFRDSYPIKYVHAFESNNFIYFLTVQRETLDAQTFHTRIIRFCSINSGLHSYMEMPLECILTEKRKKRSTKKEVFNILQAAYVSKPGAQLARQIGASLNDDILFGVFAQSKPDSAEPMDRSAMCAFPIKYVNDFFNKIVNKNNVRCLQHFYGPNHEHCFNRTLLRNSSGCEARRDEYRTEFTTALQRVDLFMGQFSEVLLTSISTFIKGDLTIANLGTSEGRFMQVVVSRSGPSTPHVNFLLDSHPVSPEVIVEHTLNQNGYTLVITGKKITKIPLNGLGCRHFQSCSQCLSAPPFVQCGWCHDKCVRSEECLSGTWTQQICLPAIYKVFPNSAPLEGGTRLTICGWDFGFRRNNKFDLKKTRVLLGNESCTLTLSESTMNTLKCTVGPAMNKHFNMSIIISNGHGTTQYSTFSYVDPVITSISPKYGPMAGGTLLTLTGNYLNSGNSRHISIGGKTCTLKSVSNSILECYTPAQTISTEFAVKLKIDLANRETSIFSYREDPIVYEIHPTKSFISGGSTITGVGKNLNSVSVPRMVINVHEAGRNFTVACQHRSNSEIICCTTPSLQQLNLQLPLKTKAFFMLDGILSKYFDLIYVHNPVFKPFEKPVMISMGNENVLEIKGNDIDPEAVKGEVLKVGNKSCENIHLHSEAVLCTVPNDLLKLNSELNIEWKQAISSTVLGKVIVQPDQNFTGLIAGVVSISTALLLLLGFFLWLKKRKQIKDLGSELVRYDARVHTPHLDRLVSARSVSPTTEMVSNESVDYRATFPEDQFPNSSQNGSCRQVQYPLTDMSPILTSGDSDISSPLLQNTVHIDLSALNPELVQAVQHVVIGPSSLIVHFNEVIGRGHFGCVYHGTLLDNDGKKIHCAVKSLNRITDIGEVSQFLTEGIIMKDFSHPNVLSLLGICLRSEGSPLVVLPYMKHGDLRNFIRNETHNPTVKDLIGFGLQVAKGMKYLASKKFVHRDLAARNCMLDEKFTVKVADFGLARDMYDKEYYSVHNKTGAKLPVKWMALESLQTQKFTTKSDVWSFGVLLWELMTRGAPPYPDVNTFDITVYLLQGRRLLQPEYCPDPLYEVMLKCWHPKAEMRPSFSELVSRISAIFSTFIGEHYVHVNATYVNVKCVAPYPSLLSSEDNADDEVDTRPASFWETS
# Chain of Tyrosine-protein kinase ABL1 (Homo sapiens) (P00519 whole entry): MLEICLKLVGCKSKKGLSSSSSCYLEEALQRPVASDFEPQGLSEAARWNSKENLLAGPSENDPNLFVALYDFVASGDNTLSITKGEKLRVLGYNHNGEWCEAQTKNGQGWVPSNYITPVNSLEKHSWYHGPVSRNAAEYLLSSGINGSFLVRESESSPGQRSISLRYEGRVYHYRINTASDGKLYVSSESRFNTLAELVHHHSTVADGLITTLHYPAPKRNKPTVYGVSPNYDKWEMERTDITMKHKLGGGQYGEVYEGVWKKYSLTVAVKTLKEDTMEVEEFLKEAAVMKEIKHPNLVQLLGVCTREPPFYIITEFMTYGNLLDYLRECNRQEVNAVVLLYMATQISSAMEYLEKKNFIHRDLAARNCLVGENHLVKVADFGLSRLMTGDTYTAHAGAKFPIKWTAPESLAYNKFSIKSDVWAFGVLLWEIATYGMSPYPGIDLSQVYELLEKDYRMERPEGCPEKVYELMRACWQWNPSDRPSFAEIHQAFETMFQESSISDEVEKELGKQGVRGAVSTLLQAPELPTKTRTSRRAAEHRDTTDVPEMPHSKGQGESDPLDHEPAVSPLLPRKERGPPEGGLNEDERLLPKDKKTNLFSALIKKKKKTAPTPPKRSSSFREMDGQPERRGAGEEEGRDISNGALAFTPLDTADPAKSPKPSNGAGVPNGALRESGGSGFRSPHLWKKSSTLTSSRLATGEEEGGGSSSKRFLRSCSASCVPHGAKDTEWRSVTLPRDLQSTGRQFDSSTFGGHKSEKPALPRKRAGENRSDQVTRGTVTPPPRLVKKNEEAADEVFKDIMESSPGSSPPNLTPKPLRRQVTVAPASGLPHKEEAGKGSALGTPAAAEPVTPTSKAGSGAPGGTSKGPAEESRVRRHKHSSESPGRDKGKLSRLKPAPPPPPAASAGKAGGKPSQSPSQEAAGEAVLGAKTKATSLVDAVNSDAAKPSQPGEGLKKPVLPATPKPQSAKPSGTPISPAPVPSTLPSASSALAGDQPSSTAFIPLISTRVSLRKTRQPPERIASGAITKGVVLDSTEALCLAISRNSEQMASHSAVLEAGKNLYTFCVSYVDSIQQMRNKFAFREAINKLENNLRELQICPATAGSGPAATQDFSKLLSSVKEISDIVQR
structure (smiles),measurement,setting,value
O=C(c1cc2ccccc2[nH]1)c1cc2c(Nc3cccc(Cl)c3)ncnc2s1,IC50,[1],31 µM
same,IC50,[2],26.4 µM
same,inhibition,[3],inactive
same,IC50,[4],13.9 µM
same,IC50,CWR22R,14 µM
same,IC50,[5],25.1 µM
same,IC50,[6],1800 nM
same,IC50,MCF7,12.5 µM
same,IC50,DU-145,9.2 µM
same,IC50,[7],20.1 µM
same,IC50,[8],13.1 µM
same,IC50,[9],23.7 µM
same,IC50,[10],28.9 µM
same,IC50,[11],16.6 nM
same,IC50,[12],13.6 µM
same,IC50,[13],47.6 µM
same,IC50,[14],4.7 µM
same,IC50,OVCAR-3,15.3 µM
same,IC50,[15],7.3 µM
same,IC50,[16],20 µM
same,IC50,HCT-116,18.9 µM
same,IC50,[17],4.3 µM
same,IC50,[18],14.1 µM
same,IC50,RKO,18.1 µM
same,IC50,LNCaP,11.3 µM
same,IC50,[19],8.6 µM
same,IC50,[20],16 µM
same,IC50,[21],6 µM
same,IC50,SAOS-2,19.3 µM
same,inhibition,[22],20%
same,IC50,NCI-H460,17.7 µM
same,IC50,[23],15.9 µM
same,IC50,[24],21.5 µM
same,IC50,[25],7.6 µM
same,IC50,[26],30.7 µM
same,IC50,[27],23.4 µM
same,inhibition,[28],inactive
same,IC50,CAL-27,3000 nM
same,IC50,TE-671,24.8 µM
same,IC50,MKN-45,20.2 µM
same,IC50,HT-29,17.7 µM
same,IC50,[29],24 µM
same,IC50,[30],18.1 µM
same,inhibition,[31],99%
same,IC50,[32],300 nM
same,IC50,[33],49.7 µM
same,inhibition,[34],73%
same,IC50,PANC-1,14.8 µM
same,IC50,[35],27.1 µM
